Measured values taken from ChEMBL document CHEMBL4706477, “Synthesis and Biological Evaluation of Calothrixins B and their Deoxygenated Analogues” (J Med Chem, 2018).
Activity calls are given as the source filed them. The calls are words filed in the database; no cut-off is given here.

Columns and labels:
Calf thymus DNA [1] = assay: Binding affinity to calf thymus DNA assessed as hypochromic effect at 3*10^-5 mol/L by double beam UV-Vis spectroscopic analysis; format: nucleic-acid assay; details: Bos taurus
Calf thymus DNA [2] = assay: Binding affinity to calf thymus DNA assessed as bathochromic shift absorbance in absorption maximum at 3*10^-5 mol/L by double beam UV-Vis spectroscopic analysis; format: nucleic-acid assay; details: Bos taurus
HeLa [3] = assay: cells; details: Homo sapiens, 48 h
Description: Antiproliferative activity against human HeLa cells assessed as reduction in cell viability incubated for 48 hrs by sulphorhodamine B assay

SiHa = assay: cells; details: Homo sapiens, 48 h
Description: Antiproliferative activity against human SiHa cells assessed as reduction in cell viability incubated for 48 hrs by sulphorhodamine B assay

MCF7 = assay: cells; details: Homo sapiens, MCF7, 48 h
Description: Antiproliferative activity against human MCF7 cells assessed as reduction in cell viability incubated for 48 hrs by sulphorhodamine B assay

HCT-116 [4] = assay: cells; details: Homo sapiens, HCT-116, 48 h
Description: Antiproliferative activity against human HCT-116 cells assessed as reduction in cell viability incubated for 48 hrs by sulphorhodamine B assay

U-251 = assay: cells; details: Homo sapiens, U-251, 48 h
Description: Antiproliferative activity against human U-251 cells assessed as reduction in cell viability incubated for 48 hrs by sulphorhodamine B assay

NCI-H460 [5] = assay: cells; details: Homo sapiens, NCI-H460, 48 h
Description: Antiproliferative activity against human NCI-H460 cells assessed as reduction in cell viability incubated for 48 hrs by sulphorhodamine B assay

MDA-MB-231 = assay: cells; details: Homo sapiens, MDA-MB-231, 48 h
Description: Antiproliferative activity against human MDA-MB-231 cells assessed as reduction in cell viability incubated for 48 hrs by sulphorhodamine B assay

NCI-H460 [6] = assay: Induction of cell death in human NCI-H460 cells at 0.1 uM incubated for 48 hrs by propidium iodide staining based flow cytometry analysis; format: functional
HEK293 = assay: Antiproliferative activity against human HEK293 cells assessed as reduction in cell viability incubated for 48 hrs by sulphorhodamine B assay; format: functional
A549 = assay: Antiproliferative activity against human A549 cells assessed as reduction in cell viability incubated for 48 hrs by sulphorhodamine B assay; format: functional
HCT-116 [7] = assay: Anticlonogenic activity against human HCT-116 cells assessed as inhibition of colony formation at 0.1 to 5 uM incubated for 48 hrs followed by compound washout with PBS and measured after 14 days by crystal violet staining based analysis; format: functional, cell-based; details: dose 0.1-5 µM
HCT-116 [8] = assay: Induction of cell cycle arrest in human HCT-116 cells assessed as accumulation of cells at G2/M phase at 5 uM incubated for 20 hrs by propidium iodide staining based flow cytometry analysis; format: functional
HCT-116 [9] = assay: Induction of cell cycle arrest in human HCT-116 cells assessed as accumulation of cells at G2/M phase at 5 uM incubated for 3 to 20 hrs in presence of 0.3 uM mitotic inhibitor nocodazole by propidium iodide staining based flow cytometry analysis; format: functional; details: time 3-20 hrs
HCT-116 [10] = assay: Induction of cell cycle arrest in human HCT-116 cells assessed as accumulation of cells at G2/M phase at 5 uM incubated for 48 hrs by propidium iodide staining based flow cytometry analysis; format: functional
NCI-H460 [11] = assay: Induction of cell cycle arrest in human NCI-H460 cells assessed as accumulation of cells at G1 phase incubated for 48 hrs by propidium iodide staining based flow cytometry analysis; format: functional; details: dose 0.1-2 µM
[12] = biological target: T1, DNA topoisomerase 2-alpha (Homo sapiens, UniProt P11388); assay: Inhibition of recombinant human topoisomerase 2 assessed as decrease in relaxation of supercoiled pBlue-Script KS(+) plasmid DNA incubated for 30 mins by ethidium bromide staining based gel electrophoresis method
T1 sequence (P11388 whole entry): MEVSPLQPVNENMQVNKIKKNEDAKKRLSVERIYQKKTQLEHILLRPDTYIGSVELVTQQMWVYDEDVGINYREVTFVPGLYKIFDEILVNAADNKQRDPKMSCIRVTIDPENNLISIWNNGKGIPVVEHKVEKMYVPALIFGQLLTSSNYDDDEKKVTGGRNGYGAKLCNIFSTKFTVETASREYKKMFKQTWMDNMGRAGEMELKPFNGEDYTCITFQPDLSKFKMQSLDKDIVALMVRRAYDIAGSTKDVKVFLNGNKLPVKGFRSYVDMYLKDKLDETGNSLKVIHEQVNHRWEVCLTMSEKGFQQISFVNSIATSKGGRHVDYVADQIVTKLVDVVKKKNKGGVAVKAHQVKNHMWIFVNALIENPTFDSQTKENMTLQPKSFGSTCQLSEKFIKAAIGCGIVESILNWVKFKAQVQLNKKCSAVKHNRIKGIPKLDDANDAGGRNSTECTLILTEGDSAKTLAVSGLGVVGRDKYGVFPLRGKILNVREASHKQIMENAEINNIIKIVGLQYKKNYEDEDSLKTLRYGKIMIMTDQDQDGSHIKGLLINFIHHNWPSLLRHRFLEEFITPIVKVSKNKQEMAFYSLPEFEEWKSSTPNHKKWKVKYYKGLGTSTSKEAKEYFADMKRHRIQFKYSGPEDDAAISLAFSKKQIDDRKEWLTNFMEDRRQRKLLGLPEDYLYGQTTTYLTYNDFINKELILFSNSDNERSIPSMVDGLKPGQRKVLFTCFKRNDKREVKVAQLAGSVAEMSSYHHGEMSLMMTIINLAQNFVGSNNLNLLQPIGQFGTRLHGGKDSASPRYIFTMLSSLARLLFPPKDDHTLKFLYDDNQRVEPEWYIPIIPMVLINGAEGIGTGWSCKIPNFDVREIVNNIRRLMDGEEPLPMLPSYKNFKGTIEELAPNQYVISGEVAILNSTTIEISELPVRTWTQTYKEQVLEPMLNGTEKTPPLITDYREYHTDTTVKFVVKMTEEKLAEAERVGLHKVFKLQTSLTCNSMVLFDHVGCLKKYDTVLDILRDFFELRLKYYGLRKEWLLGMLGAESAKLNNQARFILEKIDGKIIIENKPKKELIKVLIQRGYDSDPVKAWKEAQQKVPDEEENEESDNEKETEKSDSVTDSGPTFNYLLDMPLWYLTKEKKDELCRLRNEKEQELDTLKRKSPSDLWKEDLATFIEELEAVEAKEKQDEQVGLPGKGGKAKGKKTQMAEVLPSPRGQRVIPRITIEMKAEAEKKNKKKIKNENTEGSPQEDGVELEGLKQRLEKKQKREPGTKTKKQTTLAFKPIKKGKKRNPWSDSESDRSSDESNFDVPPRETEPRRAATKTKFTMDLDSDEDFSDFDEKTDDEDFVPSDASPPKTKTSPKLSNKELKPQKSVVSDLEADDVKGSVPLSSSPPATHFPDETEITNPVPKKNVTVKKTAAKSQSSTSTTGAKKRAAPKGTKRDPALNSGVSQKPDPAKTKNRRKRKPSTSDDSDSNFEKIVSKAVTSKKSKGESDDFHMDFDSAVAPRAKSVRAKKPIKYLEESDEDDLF

HCT-116 [13] = assay: Induction of DNA damage in human HCT-116 cells assessed as tail length at 5 uM incubated for 48 hrs by alkaline Comet assay relative to control; format: functional, cell-based
NCI-H460 [14] = assay: Induction of DNA damage in human NCI-H460 cells incubated for 48 hrs by alkaline Comet assay; format: functional, cell-based
NCI-H460 [15] = assay: Induction of apoptosis in human NCI-H460 cells assessed as morphological changes at 0.5 uM incubated for 48 hrs by acridine orange/propidium iodide double staining based fluorescence microscopy analysis; format: functional, cell-based
NCI-H460 [16] = assay: Induction of apoptosis in human NCI-H460 cells assessed as cleaved PARP levels at 1 uM incubated for 48 hrs by Western blot analysis; format: functional, cell-based
Calf thymus DNA [17] = assay: Binding affinity to calf thymus DNA assessed as red shift absorbance measured at 258 nm at 3*10^-5 mol/L by double beam UV-Vis spectroscopic analysis; format: nucleic-acid assay; details: Bos taurus
Calf thymus DNA [18] = assay: Binding affinity to calf thymus DNA assessed as hyperchromic effect measured at 258 nm at 3*10^-5 mol/L by double beam UV-Vis spectroscopic analysis; format: nucleic-acid assay; details: Bos taurus
Calf thymus DNA [19] = assay: Binding affinity to calf thymus DNA assessed as hyperchromic effect measured at 302 nm at 3*10^-5 mol/L by double beam UV-Vis spectroscopic analysis; format: nucleic-acid assay; details: Bos taurus
[20] = biological target: T2, DNA topoisomerase 1 (Homo sapiens) (UniProt P11387); assay: Inhibition of human topoisomerase 1 assessed as induction of negative supercoiled DNA using relaxed pBlue-Script KS(+) plasmid DNA as substrate measured after 15 mins by agarose gel electrophoresis analysis; details: dose 60-100 µM
T2 sequence (whole entry): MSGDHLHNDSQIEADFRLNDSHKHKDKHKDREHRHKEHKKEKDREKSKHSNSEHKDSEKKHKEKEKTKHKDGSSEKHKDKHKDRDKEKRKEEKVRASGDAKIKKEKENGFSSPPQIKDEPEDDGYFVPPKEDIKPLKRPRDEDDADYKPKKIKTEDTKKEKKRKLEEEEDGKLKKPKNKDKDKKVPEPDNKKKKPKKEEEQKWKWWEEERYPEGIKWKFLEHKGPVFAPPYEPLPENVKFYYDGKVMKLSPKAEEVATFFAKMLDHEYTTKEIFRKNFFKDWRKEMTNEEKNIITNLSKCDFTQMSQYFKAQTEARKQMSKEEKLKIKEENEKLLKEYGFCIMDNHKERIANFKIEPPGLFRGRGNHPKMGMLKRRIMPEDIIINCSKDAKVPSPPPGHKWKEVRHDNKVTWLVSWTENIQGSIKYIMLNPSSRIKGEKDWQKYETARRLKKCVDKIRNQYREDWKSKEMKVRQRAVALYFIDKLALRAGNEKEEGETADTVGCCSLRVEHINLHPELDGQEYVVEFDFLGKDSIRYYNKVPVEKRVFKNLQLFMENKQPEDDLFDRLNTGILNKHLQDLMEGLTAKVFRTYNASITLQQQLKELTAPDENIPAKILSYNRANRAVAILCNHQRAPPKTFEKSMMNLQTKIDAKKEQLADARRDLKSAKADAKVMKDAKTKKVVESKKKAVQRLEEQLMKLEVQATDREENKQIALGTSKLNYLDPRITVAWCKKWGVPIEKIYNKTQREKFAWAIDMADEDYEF

Jurkat = assay: cells; details: Homo sapiens, 48 h
Description: Antiproliferative activity against human Jurkat cells assessed as reduction in cell viability incubated for 48 hrs by sulphorhodamine B assay

physchem [21] = details: octanol/water
Description: Octanol/water partition coefficient, log P of the compound

physchem [22] = details: octanol/buffer, pH 7.4
Description: Octanol/buffer distribution coefficient, log D of the compound at pH 7.4

HCT-116 [23] = assay: Induction of cell cycle arrest in human HCT-116 cells assessed as accumulation of cells at G1 phase at 5 uM incubated for 3 to 20 hrs in presence of 0.3 uM mitotic inhibitor nocodazole by propidium iodide staining based flow cytometry analysis; format: functional; details: time 3-20 hrs
HCT-116 [24] = assay: Induction of cell cycle arrest in human HCT-116 cells assessed as accumulation of cells at G1 phase at 5 uM incubated for 48 hrs by propidium iodide staining based flow cytometry analysis; format: functional
HeLa [25] = assay: Induction of apoptosis in human HeLa cells assessed as increase in cleaved PARP levels at 10 uM by Western blot analysis; format: functional, cell-based; details: time 6-48 hrs, TDE = time-dependent effect
HCT-116 [26] = assay: cells; details: Homo sapiens, HCT-116, 48 h; remark: listed apart in the source
Description: Antiproliferative activity against human HCT-116 p53-/- cells assessed as reduction in cell viability incubated for 48 hrs by sulphorhodamine B assay

HCT-116 [27] = assay: Induction of cell cycle arrest in human HCT-116 cells assessed as accumulation of cells at G1/S phase at 2 uM incubated for 48 hrs by propidium iodide staining based flow cytometry analysis; format: functional
HCT-116 [28] = assay: Induction of cell cycle arrest in human HCT-116 cells assessed as accumulation of cells at sub-G1 phase at 2 uM incubated for 48 hrs by propidium iodide staining based flow cytometry analysis; format: functional
[29] = biological target: T1, DNA topoisomerase 2-alpha; assay: Inhibition of recombinant human topoisomerase 2 assessed as decrease in relaxation of supercoiled pBlue-Script KS(+) plasmid DNA at 200 uM incubated for 30 mins by ethidium bromide staining based gel electrophoresis method
[30] = biological target: T1, DNA topoisomerase 2-alpha; assay: Inhibition of recombinant human topoisomerase 2 assessed as decrease in relaxation of supercoiled pBlue-Script KS(+) plasmid DNA at < 100 uM incubated for 30 mins by ethidium bromide staining based gel electrophoresis method; details: dose microM <100, time 30.0 min
HCT-116 [31] = assay: Induction of DNA damage in human HCT-116 cells assessed as tail length at 0.5 uM incubated for 48 hrs by alkaline Comet assay relative to control; format: functional, cell-based
HCT-116 [32] = assay: Induction of apoptosis in human HCT-116 cells assessed as chromatin condensation at 2 uM incubated for 48 hrs by acridine orange/propidium iodide double staining based fluorescence microscopy analysis; format: functional, cell-based
HCT-116 [33] = assay: Induction of apoptosis in human HCT-116 cells assessed as nuclear fragmentation at 2 uM incubated for 48 hrs by acridine orange/propidium iodide double staining based fluorescence microscopy analysis; format: functional, cell-based
NCI-H460 [34] = assay: Induction of apoptosis in human NCI-H460 cells assessed as chromatin condensation at 2 uM incubated for 48 hrs by acridine orange/propidium iodide double staining based fluorescence microscopy analysis; format: functional, cell-based
NCI-H460 [35] = assay: Induction of apoptosis in human NCI-H460 cells assessed as nuclear fragmentation at 2 uM incubated for 48 hrs by acridine orange/propidium iodide double staining based fluorescence microscopy analysis; format: functional, cell-based
HeLa [36] = assay: Induction of apoptosis in human HeLa cells assessed as increase in cleaved PARP levels at 1 uM by Western blot analysis; format: functional, cell-based; details: time 6-24 hrs, TDE = time-dependent effect
NCI-H460 [37] = assay: Induction of apoptosis in human NCI-H460 cells assessed as increase in cleaved PARP protein levels at 3 uM incubated for 48 hrs by Western blot analysis; format: functional, cell-based
HCT-116 [38] = assay: Induction of apoptosis in human HCT-116 cells assessed as reduction in PARP protein levels at 3 uM incubated for 48 hrs by Western blot analysis; format: functional, cell-based
Calf thymus DNA [39] = assay: Binding affinity to calf thymus DNA assessed as hypsochromic shift absorbance measured at 284 nm at 3*10^-5 mol/L by double beam UV-Vis spectroscopic analysis; format: nucleic-acid assay; details: Bos taurus
Calf thymus DNA [40] = assay: Binding affinity to calf thymus DNA assessed as hyperchromic shift measured at 362 nm at 3*10^-5 mol/L by double beam UV-Vis spectroscopic analysis; format: nucleic-acid assay; details: Bos taurus
Calf thymus DNA [41] = assay: Binding affinity to calf thymus DNA assessed as hyperchromic shift measured at 432 nm at 3*10^-5 mol/L by double beam UV-Vis spectroscopic analysis; format: nucleic-acid assay; details: Bos taurus

Row | Activity (Calf thymus DNA [1]) | GI50 (HeLa [3]) | GI50 (MCF7) | GI50 (HCT-116 [4]) | GI50 (U-251) | GI50 (NCI-H460 [5]) | GI50 (MDA-MB-231) | GI50 (Jurkat) | logP (physchem [21]) | logD (physchem [22]) | GI50 (HCT-116 [26]) | SMILES | GI50 (SiHa) | Activity (HCT-116 [9]) | Activity (HCT-116 [13]) | also measured
1 | 40% | 1100 nM | 2750 nM | 1750 nM | 1350 nM | 1500 nM | 1000 nM | – | – | – | – | CN(C)CCCNc1nc2ccccc2c2cc3[nH]c4ccccc4c3cc12 | 1150 nM | – | – | Activity (Calf thymus DNA [2]): 15 nm
2 | – | 20 nM | 20 nM | 6000 nM | > 4000 nM | 1 nM | 950 nM | > 4000 nM | 1.91 | 1.61 | – | Fc1ccc2c(c1)ncc1cc3c(cc12)[nH]c1ccccc13 | > 4000 nM | Active | Active | Activity (NCI-H460 [6]): Active; GI50 (HEK293): 5.2 nM; GI50 (A549): > 4000 nM; inhibition (HCT-116 [7]): Active; Activity (HCT-116 [8]): Active; Activity (HCT-116 [10]): Active; Activity (NCI-H460 [11]): Dose-dependent effect; inhibition [12]: inactive; Activity (NCI-H460 [14]): Dose-dependent effect; Activity (NCI-H460 [15]): Active; Activity (NCI-H460 [16]): Active; Activity (Calf thymus DNA [17]): 14 nm; Activity (Calf thymus DNA [18]): 46%; Activity (Calf thymus DNA [19]): 41%; Activity [20]: Dose-dependent effect
3 | – | 470 nM | 260 nM | 650 nM | 2250 nM | > 4000 nM | 160 nM | > 4000 nM | -1.81 | -2.11 | 2550 nM | O=C1c2[nH]c3ccccc3c2C(=O)c2cnc3ccccc3c21 [CALOTHRIXIN B] | 3500 nM | Active | Active | Activity (HCT-116 [23]): inactive; Activity (HCT-116 [24]): Active; Activity (HeLa [25]): Tde
4 | 13% | 80 nM | 30 nM | 110 nM | 80 nM | 220 nM | 40 nM | 70 nM | 1.32 | 1.02 | 80 nM | O=C1c2c[n+]([O-])c3ccccc3c2C(=O)c2[nH]c3ccccc3c21 [CALOTHRIXIN A] | 50 nM | – | – | Activity (HCT-116 [27]): Active; Activity (HCT-116 [28]): Active; inhibition [29]: Active; inhibition [30]: inactive; Activity (HCT-116 [31]): Active; Activity (HCT-116 [32]): Active; Activity (HCT-116 [33]): Active; Activity (NCI-H460 [34]): Active; Activity (NCI-H460 [35]): Active; Activity (HeLa [36]): Tde; Activity (NCI-H460 [37]): Active; Activity (HCT-116 [38]): Active; Activity (Calf thymus DNA [39]): 10 nm; Activity (Calf thymus DNA [40]): 12%; Activity (Calf thymus DNA [41]): 13%
